Earlier results in US7998474B2, “Methods for treating an inflammatory disease of the bowel” (Rowett Research Institute, priority 2001, dated 2011).

System: Clostridium perfringens serotype A
Settings: mouse, in vivo; cited from earlier work

In the case of Bacteroides thetaiotaomicron [BT], the “Resistance of ex-germ free mice to infection by Clostridium perfringens serotype A” value is given as “did not however increase the resistance”.
